Tests used:
Assay in all cases: KINOMEscan (ScanMAX) kinase profiling
Type in all cases: binding
panel of 468 kinases [1] = target: T1, panel of 468 kinases (Homo sapiens, UniProt P07949, M918T); settings: RET(M918T); 1 μM; read-out: % control
T1 construct: purchased KINOMEscan (ScanMAX) service

panel of 468 kinases [2] = target: T2, panel of 468 kinases (Homo sapiens, UniProt P08581); settings: MET; 1 μM; read-out: % control
T2 construct: purchased KINOMEscan (ScanMAX) service

panel of 468 kinases [3] = target: T3, panel of 468 kinases (Homo sapiens, UniProt P06241); settings: FYN; 1 μM; read-out: % control
T3 construct: purchased KINOMEscan (ScanMAX) service
T3 sequence (P06241 whole entry): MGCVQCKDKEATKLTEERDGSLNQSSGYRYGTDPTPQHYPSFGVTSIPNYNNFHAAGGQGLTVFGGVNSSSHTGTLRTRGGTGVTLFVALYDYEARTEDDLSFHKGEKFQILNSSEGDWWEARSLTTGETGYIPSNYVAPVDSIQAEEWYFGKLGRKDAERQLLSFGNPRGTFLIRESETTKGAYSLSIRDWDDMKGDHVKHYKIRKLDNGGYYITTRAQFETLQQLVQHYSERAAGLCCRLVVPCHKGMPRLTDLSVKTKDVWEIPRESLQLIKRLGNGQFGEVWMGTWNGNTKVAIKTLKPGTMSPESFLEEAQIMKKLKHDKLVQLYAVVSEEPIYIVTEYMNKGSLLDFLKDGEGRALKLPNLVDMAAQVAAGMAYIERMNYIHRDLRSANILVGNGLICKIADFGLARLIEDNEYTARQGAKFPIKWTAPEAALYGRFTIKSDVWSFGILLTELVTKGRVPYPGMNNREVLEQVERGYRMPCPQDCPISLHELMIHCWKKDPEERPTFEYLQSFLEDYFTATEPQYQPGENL

panel of 468 kinases [4] = target: T4, panel of 468 kinases (Homo sapiens, UniProt P35626); settings: GRK3; 1 μM; read-out: % control
T4 construct: purchased KINOMEscan (ScanMAX) service
T4 sequence (P35626 1-688): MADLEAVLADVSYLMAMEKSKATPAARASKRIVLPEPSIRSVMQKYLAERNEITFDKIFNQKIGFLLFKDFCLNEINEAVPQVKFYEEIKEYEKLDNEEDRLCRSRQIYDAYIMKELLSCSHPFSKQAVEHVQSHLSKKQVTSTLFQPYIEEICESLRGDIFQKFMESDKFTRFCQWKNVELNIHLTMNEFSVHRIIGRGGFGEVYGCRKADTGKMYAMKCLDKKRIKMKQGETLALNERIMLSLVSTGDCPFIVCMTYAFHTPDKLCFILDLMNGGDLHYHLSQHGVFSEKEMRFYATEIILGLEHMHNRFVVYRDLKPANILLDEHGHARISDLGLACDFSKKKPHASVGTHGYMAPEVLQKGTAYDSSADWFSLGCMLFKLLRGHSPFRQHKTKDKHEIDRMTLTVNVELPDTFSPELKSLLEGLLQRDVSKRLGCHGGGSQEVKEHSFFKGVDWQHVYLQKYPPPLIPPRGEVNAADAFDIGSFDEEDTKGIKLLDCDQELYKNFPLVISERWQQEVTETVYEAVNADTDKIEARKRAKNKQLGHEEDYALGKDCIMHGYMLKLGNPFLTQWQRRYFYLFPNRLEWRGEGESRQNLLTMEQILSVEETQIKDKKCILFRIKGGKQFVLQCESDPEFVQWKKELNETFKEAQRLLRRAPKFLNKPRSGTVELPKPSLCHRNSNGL

panel of 468 kinases [5] = settings: 1 μM
panel of 468 kinases [6] = target: T5, panel of 468 kinases (Homo sapiens, UniProt Q04771); settings: ACVR1; 1 μM; read-out: % control
T5 construct: purchased KINOMEscan (ScanMAX) service
T5 sequence (Q04771 21-509): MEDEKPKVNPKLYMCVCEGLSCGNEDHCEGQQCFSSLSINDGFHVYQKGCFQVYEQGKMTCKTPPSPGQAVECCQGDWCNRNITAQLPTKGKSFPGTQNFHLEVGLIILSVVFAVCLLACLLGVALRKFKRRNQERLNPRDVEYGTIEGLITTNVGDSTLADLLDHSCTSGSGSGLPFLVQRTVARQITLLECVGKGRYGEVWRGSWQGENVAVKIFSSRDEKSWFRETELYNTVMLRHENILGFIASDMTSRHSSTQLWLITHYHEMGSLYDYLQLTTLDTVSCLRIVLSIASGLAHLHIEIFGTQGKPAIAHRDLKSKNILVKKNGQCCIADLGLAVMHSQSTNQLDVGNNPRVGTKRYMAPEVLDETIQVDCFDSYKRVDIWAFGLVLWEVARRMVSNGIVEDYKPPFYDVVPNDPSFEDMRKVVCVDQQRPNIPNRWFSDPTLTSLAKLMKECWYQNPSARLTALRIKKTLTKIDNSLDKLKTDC

panel of 468 kinases [7] = target: T6, panel of 468 kinases (Homo sapiens, UniProt Q8N4C8); settings: MINK; 1 μM; read-out: % control
T6 construct: purchased KINOMEscan (ScanMAX) service

panel of 468 kinases [8] = target: T7, panel of 468 kinases (Homo sapiens, UniProt P48736); settings: PIK3CG; 1 μM; read-out: % control
T7 construct: purchased KINOMEscan (ScanMAX) service

panel of 468 kinases [9] = target: T8, panel of 468 kinases (Homo sapiens, UniProt Q14680); settings: MELK; 1 μM; read-out: % control
T8 construct: purchased KINOMEscan (ScanMAX) service
T8 sequence (Q14680 whole entry): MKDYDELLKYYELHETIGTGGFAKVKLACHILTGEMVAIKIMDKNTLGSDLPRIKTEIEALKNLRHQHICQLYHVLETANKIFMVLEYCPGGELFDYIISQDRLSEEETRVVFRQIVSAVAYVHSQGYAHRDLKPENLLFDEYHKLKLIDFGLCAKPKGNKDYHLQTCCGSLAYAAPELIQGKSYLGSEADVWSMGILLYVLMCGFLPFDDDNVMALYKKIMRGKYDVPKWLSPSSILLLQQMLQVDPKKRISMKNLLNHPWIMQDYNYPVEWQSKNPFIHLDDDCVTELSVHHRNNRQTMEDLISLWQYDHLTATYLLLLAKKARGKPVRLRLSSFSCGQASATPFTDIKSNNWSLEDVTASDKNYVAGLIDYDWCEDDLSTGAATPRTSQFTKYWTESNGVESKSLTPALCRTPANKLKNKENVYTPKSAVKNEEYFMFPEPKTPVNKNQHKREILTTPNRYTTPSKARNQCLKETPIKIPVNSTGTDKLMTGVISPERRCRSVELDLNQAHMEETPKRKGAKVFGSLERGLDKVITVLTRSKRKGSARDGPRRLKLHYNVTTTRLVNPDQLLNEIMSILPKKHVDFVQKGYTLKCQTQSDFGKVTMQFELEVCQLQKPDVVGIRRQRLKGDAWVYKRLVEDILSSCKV

panel of 468 kinases [10] = target: T9, panel of 468 kinases (Homo sapiens, UniProt Q9P289); settings: MST4; 1 μM; read-out: % control
T9 construct: purchased KINOMEscan (ScanMAX) service
T9 sequence (Q9P289 whole entry): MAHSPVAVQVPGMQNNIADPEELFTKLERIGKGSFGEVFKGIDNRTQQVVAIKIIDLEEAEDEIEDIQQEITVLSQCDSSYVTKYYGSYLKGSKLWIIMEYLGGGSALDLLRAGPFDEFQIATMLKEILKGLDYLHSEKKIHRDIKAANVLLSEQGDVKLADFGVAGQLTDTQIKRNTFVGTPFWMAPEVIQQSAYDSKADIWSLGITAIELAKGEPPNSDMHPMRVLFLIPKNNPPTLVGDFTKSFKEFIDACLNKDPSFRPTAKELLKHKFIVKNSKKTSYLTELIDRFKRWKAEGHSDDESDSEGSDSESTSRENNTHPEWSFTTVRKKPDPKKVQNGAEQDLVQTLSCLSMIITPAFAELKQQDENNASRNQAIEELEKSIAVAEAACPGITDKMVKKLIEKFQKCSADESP

panel of 468 kinases [11] = target: T10, panel of 468 kinases (Homo sapiens, UniProt Q9NSY1); settings: BIKE; 1 μM; read-out: % control
T10 construct: purchased KINOMEscan (ScanMAX) service

panel of 468 kinases [12] = target: T11, panel of 468 kinases (Homo sapiens, UniProt O94768); settings: DRAK2; 1 μM; read-out: % control
T11 construct: purchased KINOMEscan (ScanMAX) service
T11 sequence (O94768 1-372): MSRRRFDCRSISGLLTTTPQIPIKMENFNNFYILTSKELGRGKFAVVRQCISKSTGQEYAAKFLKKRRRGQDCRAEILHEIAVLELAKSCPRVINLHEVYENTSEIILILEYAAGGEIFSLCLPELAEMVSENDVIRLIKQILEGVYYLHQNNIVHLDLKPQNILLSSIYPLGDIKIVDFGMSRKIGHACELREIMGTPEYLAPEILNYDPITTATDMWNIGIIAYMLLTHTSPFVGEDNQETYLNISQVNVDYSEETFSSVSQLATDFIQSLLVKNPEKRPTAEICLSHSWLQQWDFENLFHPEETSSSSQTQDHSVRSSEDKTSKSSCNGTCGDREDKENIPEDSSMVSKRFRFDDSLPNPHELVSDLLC

panel of 468 kinases [13] = target: T12, panel of 468 kinases (Homo sapiens, UniProt Q16659); settings: ERK3; 1 μM; read-out: % control
T12 construct: purchased KINOMEscan (ScanMAX) service
T12 sequence (Q16659 whole entry): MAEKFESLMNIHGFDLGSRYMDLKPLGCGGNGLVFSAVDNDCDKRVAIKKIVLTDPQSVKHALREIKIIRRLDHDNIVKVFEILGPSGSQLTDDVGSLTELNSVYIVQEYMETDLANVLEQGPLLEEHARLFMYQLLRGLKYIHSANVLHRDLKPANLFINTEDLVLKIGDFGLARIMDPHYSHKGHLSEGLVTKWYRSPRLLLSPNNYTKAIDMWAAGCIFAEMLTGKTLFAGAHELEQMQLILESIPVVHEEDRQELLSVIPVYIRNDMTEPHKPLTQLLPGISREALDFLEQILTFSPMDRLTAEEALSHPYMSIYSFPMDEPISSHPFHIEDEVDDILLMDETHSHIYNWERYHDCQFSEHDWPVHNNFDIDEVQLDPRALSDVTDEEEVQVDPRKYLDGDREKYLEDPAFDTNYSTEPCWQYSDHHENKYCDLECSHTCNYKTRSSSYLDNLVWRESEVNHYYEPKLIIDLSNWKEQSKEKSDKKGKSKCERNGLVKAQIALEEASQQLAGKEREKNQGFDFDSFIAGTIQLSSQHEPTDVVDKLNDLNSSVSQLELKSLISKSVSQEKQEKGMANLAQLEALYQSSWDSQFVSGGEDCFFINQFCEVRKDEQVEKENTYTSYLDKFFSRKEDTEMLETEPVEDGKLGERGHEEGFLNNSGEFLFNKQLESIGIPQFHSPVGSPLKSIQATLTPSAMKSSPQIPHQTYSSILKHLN

panel of 468 kinases [14] = target: T13, panel of 468 kinases (Homo sapiens, UniProt P07947); settings: YES; 1 μM; read-out: % control
T13 construct: purchased KINOMEscan (ScanMAX) service

T2 sequence (P08581 25-1390): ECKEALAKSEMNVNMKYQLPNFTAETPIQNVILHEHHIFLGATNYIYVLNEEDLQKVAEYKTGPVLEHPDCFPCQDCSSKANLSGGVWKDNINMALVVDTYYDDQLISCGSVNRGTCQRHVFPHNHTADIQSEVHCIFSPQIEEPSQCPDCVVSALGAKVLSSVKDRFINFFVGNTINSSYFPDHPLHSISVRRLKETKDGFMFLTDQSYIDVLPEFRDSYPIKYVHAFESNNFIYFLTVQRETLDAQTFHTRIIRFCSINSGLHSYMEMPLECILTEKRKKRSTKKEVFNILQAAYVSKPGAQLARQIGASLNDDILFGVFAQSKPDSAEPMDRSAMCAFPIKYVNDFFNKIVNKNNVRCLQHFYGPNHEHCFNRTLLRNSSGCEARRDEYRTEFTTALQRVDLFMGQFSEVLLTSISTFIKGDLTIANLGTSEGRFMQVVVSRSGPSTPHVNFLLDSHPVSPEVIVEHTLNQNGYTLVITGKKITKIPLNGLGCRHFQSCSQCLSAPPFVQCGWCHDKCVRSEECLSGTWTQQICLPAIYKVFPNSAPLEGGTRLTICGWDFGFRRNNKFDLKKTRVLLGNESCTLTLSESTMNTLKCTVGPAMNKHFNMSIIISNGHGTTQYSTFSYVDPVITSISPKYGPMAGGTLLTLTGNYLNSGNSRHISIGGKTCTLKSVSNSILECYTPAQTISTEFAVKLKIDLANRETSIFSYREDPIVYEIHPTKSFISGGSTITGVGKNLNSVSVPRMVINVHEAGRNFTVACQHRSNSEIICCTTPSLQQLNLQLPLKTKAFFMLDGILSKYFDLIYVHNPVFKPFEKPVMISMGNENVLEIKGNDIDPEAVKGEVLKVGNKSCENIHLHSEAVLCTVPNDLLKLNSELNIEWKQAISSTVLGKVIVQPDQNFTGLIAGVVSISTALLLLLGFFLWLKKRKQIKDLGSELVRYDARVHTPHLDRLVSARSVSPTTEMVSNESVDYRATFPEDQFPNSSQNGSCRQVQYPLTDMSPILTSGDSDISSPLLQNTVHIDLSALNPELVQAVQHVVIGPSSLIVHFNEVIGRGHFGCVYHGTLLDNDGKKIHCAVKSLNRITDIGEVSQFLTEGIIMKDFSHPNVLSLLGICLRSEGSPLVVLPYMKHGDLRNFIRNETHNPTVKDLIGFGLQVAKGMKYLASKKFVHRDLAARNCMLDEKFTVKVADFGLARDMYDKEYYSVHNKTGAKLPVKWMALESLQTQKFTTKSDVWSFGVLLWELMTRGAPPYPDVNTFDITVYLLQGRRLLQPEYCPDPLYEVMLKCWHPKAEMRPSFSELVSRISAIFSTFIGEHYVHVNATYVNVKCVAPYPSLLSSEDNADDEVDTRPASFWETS
T1 sequence (P07949 29-1114 M918T): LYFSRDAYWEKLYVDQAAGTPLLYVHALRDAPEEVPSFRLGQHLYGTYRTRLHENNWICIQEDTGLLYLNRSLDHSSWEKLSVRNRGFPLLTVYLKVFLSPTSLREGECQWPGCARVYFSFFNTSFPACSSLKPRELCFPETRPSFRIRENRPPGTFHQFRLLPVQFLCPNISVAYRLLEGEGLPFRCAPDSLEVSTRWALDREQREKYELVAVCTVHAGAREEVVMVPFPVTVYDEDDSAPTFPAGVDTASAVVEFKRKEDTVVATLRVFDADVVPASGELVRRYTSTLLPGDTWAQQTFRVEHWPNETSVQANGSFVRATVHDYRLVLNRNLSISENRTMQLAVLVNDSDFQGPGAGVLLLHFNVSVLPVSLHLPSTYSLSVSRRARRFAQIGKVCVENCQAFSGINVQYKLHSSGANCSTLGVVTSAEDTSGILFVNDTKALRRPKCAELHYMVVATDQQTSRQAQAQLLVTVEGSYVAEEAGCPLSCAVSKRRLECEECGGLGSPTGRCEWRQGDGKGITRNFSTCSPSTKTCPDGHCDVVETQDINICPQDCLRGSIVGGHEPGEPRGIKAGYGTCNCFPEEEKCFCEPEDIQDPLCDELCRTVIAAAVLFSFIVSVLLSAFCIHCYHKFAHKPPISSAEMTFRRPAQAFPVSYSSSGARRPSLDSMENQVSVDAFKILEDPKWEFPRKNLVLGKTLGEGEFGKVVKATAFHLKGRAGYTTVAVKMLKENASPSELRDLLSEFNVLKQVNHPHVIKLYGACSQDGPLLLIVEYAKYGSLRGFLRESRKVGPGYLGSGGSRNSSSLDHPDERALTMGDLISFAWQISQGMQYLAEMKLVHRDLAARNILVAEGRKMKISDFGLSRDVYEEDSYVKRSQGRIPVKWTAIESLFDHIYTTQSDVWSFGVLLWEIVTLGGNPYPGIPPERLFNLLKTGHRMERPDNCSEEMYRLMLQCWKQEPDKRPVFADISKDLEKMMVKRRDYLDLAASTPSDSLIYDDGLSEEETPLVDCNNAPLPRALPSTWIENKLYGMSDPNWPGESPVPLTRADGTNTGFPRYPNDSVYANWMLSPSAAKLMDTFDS

Compound	remaining binding at 1 µM (panel of 468 kinases [1]) [%]	remaining binding at 1 µM (panel of 468 kinases [2]) [%]	remaining binding at 1 µM (panel of 468 kinases [3]) [%]	remaining binding at 1 µM (panel of 468 kinases [4]) [%]	% control (panel of 468 kinases [5]; EGFR(L747-E749del, A750P)) [%]	% control (panel of 468 kinases [5]; EGFR(L747-S752del, P753S)) [%]	% control (panel of 468 kinases [5]; EGFR(L747-T751del,Sins)) [%]	% control (panel of 468 kinases [5]; FLT3(ITD)) [%]	% control (panel of 468 kinases [5]; FLT3(ITD,D835V)) [%]	% control (panel of 468 kinases [5]; FLT3(ITD,F691L)) [%]	remaining binding at 1 µM (panel of 468 kinases [6]) [%]	remaining binding at 1 µM (panel of 468 kinases [7]) [%]	remaining binding at 1 µM (panel of 468 kinases [8]) [%]	remaining binding at 1 µM (panel of 468 kinases [9]) [%]	remaining binding at 1 µM (panel of 468 kinases [10]) [%]	remaining binding at 1 µM (panel of 468 kinases [11]) [%]	remaining binding at 1 µM (panel of 468 kinases [12]) [%]	remaining binding at 1 µM (panel of 468 kinases [13]) [%]	remaining binding at 1 µM (panel of 468 kinases [14]) [%]
CNc1nc(Nc2ccc(S(=O)(=O)N3CCC(N4CCOCC4)CC3)cc2OC)nc2[nH]cc(Cl)c12 [Compound 12, 5-chloro-N2-(2-methoxy-4-((4-morpholinopiperidin-1-yl)sulfonyl)phenyl)-N4-methyl-7H-pyrrolo[2,3-d]pyrimidine-2,4-diamine]	100	100	100	100	100	95	100	100	61	66	100	75	95	100	80	96	74	100	100
CNc1nc(Nc2ccc(P3(=O)CCN(C4CCOCC4)CC3)cc2OC)nc2[nH]cc(Cl)c12 [Compound 77, 4-(4-((5-chloro-4-(methylamino)-7H-pyrrolo[2,3-d]pyrimidin-2-yl)amino)-3-methoxyphenyl)-1-(tetrahydro-2H-pyran-4-yl)-1,4-azaphosphinane 4-oxide]	94	100	95	82	92	99	100	81	19	40	100	63	100	85	76	91	39	99	100
CNc1nc(Nc2ccc(C(=O)N3CCC(N4CCOCC4)CC3)c3c2OCO3)nc2[nH]cc(Cl)c12 [Compound 75, (7-((5-chloro-4-(methylamino)-7H-pyrrolo[2,3-d]pyrimidin-2-yl)amino)benzo[d][1,3]dioxol-4-yl)(4-morpholinopiperidin-1-yl)methanone]	90	100	100	78	100	87	100	33	2	2.8	100	18	100	30	51	40	3.9	91	100
